Results as given in patent publication US20050249857A1, “Lignan complexes” (priority 2002, published 2005).
Values after ≈ are worked out from the molar mass of the structure shown. Like-named read-outs stand apart in the source and are kept apart here.

Key:
[1] = Phase-solubility study of HMR with HP-β-CD; type: physicochemical; conditions: for solubility at 72 h: acetate buffer, 25 °C, thermodynamic from solid, 0.16 M acetate buffer pH 5.0, μ = 0.5, 25° C., equilibration 72 hours
Method: The phase solubility studies with HMR was also performed with HP-β-CD (0-10%). In the case of HP-β-CD the equilibration time was 72 hours.

[2] = Chemical stability of HMR in acetate buffer with and without 2% γ-CD; type: physicochemical; conditions: for First-order rate constant kobs for chemical degradation / shelf-life t90% for chemical degradation: 0.16 M acetate buffer pH 5.0, 30° C.; for half-life: acetate buffer, pH 5, 0.16 M acetate buffer pH 5.0, 30° C., read-out: half-life t1/2 for chemical degradation (converted)
Method: All the solutions were prepared by dissolving 1.5-2.0 mg of HMR into 20 ml of the solutions mentioned above, and the concentration of the remaining HMR was determined at appropriate intervals by HPLC. The pseudo-first order rate constant for overall degradation of HMR was determined from the slopes of the linear semilogarithmic plots of remaining HMR versus time. The results of the stability studies were calculated as an average of three determinations.

[3] = physchem; conditions: 25 °C, pH 5, aqueous buffer, thermodynamic from solid
Method: (§1) The samples from the solubility and stability studies were analysed by using the HPLC system which consist of the UV-detector (L-7400), interface module (D-7000), pump (L-7100) and autosampler (L-7250, Merck Hitachi, Japan). Purospher® reversed phase column (RP-18e, 5 μm, 125×4 mm) was used in all chromatographic separations.
(§2) An excess amount of lignan or lignan ester was added to acetate buffer (0.16 M; pH 5.0; ionic strength 0.5) containing various concentrations of γ-CD (0-10%). The suspensions were shaken in the dark (25° C.) for 24 hour and the pH of the suspensions were monitored during the equilibration. The pH of suspensions was adjusted to 5.0 with HCl or NaOH if necessary. After equilibration, the suspensions were filtered through 0.45 μm membrane filters and analysed by HPLC.

[4] = Phase-solubility study with γ-CD (Higuchi and Connors); conditions: 0.16 M acetate buffer pH 5.0, μ = 0.5, 25° C., equilibration 24 hours
Method: as §1, §2

Molecule | solubility at 24 h [3] [µg/mL] | aqueous solubility ([4]; γ-CD 0 g/100 ml) | aqueous solubility ([4]; γ-CD 1 g/100 ml) | aqueous solubility ([4]; γ-CD 2 g/100 ml) [µg/mL] | aqueous solubility ([4]; γ-CD 5 g/100 ml) [µg/mL] | aqueous solubility ([4]; γ-CD 10 g/100 ml) [µg/mL] | also measured
COc1cc(C[C@H]2COC(=O)[C@@H]2Cc2ccc(O)c(OC)c2)ccc1O [MR, matairesinol] | 490 (≈ 1.37 mM) | – | – | – | – | – | –
CCCC(=O)Oc1ccc(C[C@H]2COC(=O)[C@@H]2Cc2ccc(OC(=O)CCC)c(OC)c2)cc1OC [MRdiBu, matairesinol dibutyrate] | – | —* (concentration is under the detection limit of the HPLC method employed.) | —* (concentration is under the detection limit of the HPLC method employed.) | 0.87 (≈ 0.00174 mM) | 1.21 (≈ 0.00243 mM) | 0.84 (≈ 0.00168 mM) | –
hydroxymatairesinol diacetate [HMRdiAc] | – | 750 µg/mL | 1460 µg/mL | 2070 | 940 | 160 | –

Second part, led by results:

solubility at 24 h [3] [µg/mL] | aqueous solubility ([4]; γ-CD 0 g/100 ml) | aqueous solubility ([4]; γ-CD 1 g/100 ml) | aqueous solubility ([4]; γ-CD 2 g/100 ml) [µg/mL] | aqueous solubility ([4]; γ-CD 5 g/100 ml) [µg/mL] | aqueous solubility ([4]; γ-CD 10 g/100 ml) [µg/mL] | Molecule | also measured
6700 (≈ 17.9 mM) | – | – | – | – | – | COc1cc(C[C@H]2C(=O)OC[C@@H]2[C@H](O)c2ccc(O)c(OC)c2)ccc1O [HMR, hydroxymatairesinol] | effect of HP-β-CD on aqueous solubility ([1]; HP-β-CD 0-10%, pH 5.0): increases aqueous solubility; solubility at 72 h ([1]; pH 5, aqueous buffer, HP-β-CD 0 g/100 ml): 14600 µg/mL (≈ 38.9 mM); solubility at 72 h ([1]; pH 5, aqueous with cosolvent or surfactant or cyclodextrin, HP-β-CD 1 g/100 ml): 14900 µg/mL (≈ 39.8 mM); solubility at 72 h ([1]; pH 5, aqueous with cosolvent or surfactant or cyclodextrin, HP-β-CD 2 g/100 ml): 14900 µg/mL (≈ 39.9 mM); solubility at 72 h ([1]; pH 5, aqueous with cosolvent or surfactant or cyclodextrin, HP-β-CD 5 g/100 ml): 20200 µg/mL (≈ 53.8 mM); solubility at 72 h ([1]; pH 5, aqueous with cosolvent or surfactant or cyclodextrin, HP-β-CD 10 g/100 ml): 26800 µg/mL (≈ 71.7 mM); First-order rate constant kobs for chemical degradation ([2]; with 2% γ-CD): 5.71e-05 h⁻¹; shelf-life t90% for chemical degradation ([2]; with 2% γ-CD): 1845 h; First-order rate constant kobs for chemical degradation ([2]; without γ-CD): 0.000691 h⁻¹; shelf-life t90% for chemical degradation ([2]; without γ-CD): 152 h; half-life ([2]; with 2% γ-CD): 506 days; half-life ([2]; without γ-CD): 41.8 days; increase of chemical stability by 2% γ-CD ([2]; pH 5.0, with versus without 2% γ-CD): about 12 fold; kinetics of overall degradation ([2]; presence and absence of 2% γ-CD at pH 5.0): followed first-order kinetics
– | 700 µg/mL (≈ 1.93 mM) | 1740 µg/mL (≈ 4.8 mM) | 2020 (≈ 5.57 mM) | 1780 (≈ 4.91 mM) | 390 (≈ 1.08 mM) | COc1cc(C[C@@H](CO)[C@H](CO)Cc2ccc(O)c(OC)c2)ccc1O [SECO, secoisolariciresinol] | –
